{
  "source": "patent US20250285714A1",
  "about": "“A PHARMACEUTICAL PLATFORM TECHNOLOGY FOR DRUG DISCOVERY AND CONSUMER HEALTH PRODUCT DEVELOPMENT” (SINOVEDA CANADA INC., priority 2021, published 2025)",
  "type_in_all_cases": "cell-based, human",
  "key": {"HepG2 cells [1]": {"tested_on": "HepG2 cells", "test": "HepG2 cell proliferation XTT assay", "settings": "HepG2 in-vitro cell model", "method": "Cell assays: HepG2 cells were obtained from the American Type Culture Collection (ATCC). Cryopreserved cells in DMEM with 10% DMSO were thawed and diluted 10-fold in phenol red free DMEM media containing fetal 10% bovine serum, 100 μg/ml penicillin/streptomycin, supplemented with Glutamax™ and sodium pyruvate. Subsequently, cells were centrifuged at 20 g for 10 minutes. The cells were resuspended in the same media to a concentration of 2×10^5 cells/ml. Ninety-six well cell culture treated flat bottom plates were seeded with 7.5×10^3 HepG2 cells and incubated at 37° C., 5% CO2, >95% relative humidity for 18 hours to allow cellular adhesion after which media was replaced with like media containing 1-20% FBS and various test compounds (50 μg/ml to 50 ng/ml). […] Formazan production was measured 450 nm Varioskan lux at on a spectrophotometer. Non-specific absorption was measured at 660 nm and subtracted from the reference measurement at 450 nm. […]\nTernary cannabinoid assays: For tertiary cannabinoid compound mixtures, ratio mixtures of CBD:CBC:CBN were randomly chosen between 9:3:1 to 1:1:1 and CBN:CBC:CBD between 3:2:1 to 1:1:1 in IMDM media supplemented with 20% FBS and 1% ethanol and CBD:CBC:CBN ratios between 9:3:1 to 1:1:1 in DMEM media supplemented with 1% FBS. Cannabinoids were mixed and diluted in the media ready for serial dilution. […]"}, "HepG2 cells [2]": {"tested_on": "HepG2 cells", "test": "rtPCR TaqMan array of cancer pathway genes in treated HepG2 cells", "settings": "6 h; CBD 17, CBC 23, CBN 20, 1:1:1 17, sorafenib 12 μg/ml", "method": "rt-PCR: Target cancer gene pathways will be analyzed using a custom Taqman array card exploring 91 unique genes involved with a few cancer pathways.\nTwo million HepG2 cells in IMDM media with 20% FBS, and 1% ethanol were seeded in T75 flasks and incubated at 37° C., 7.5% CO2 until 70-80% confluent (approx. […]). The media were replenished with media containing individual cannabinoids (CBD 17 μg/ml, CBC 23 μg/ml, CBN 20 μg/ml) and cannabinoid mixture of CBD:CBC:CBN of 1:1:1 (17 μg/ml) and incubated for 6 hours prior to harvest. […] Untreated cells were included as a negative control Glyceraldehyde-3-phosphate dehydrogenase (GAPDH) was included as an endogenous control and used for normalization of the data.\nRNA was extracted using Invitrogen's Dynabead mRNA DIRECT kit using the recommended protocol to provide 50 μL of a purified mRNA solution. […] of RT master mix was mixed into the mRNA solution and the mixture left to react at 37° C. for 60 minutes. Reverse transcriptase inactivation was performed at 95° C. for 5 minutes and the resulting cDNA samples were kept at 4° C. until use. Fifty-five microliters of TaqMan Fast Advance master mix were added to an equal amount of cDNA sample containing 1 μg/100 μl of cDNA, which was loaded into each card reservoir. The cards were centrifuged twice at 1200 RPM for 3 minutes in a Legend XFR centrifuge and the rtPCR reaction was conducted in a QuantStudio7 PCR instrument using the standard settings with 40 amplification cycles.\nAssessment of cancer gene pathways were carried out using custom designed TaqMan array cards exploring 86 genes linked to numerous cancer related pathways. […] In addition to individual pathways, genes linked to specific cellular processes were also explored."}, "HepG2 cells [3]": {"tested_on": "HepG2 cells", "test": "In-cell Western-blot protein expression in treated HepG2 cells", "settings": "six hour treatment; CBD 17, CBC 23, CBN 20, Sorafenib 12, SCI-111 17, SCI-521 17 μg/ml", "method": "In-cell Western-blot analysis: Protein expression was assessed by seeding 1000 HepG2 cells/well from cyro frozen stocks into 384 well optical bottom black culture plates from Thermo-Scientific (item 142761) in IMDM media with 20% FBS and 1% ethanol. […] After a six hour treatment, the cells were fixated with 4% formaldehyde for 15 minutes, permeated with 0.1% triton-x100 for 10 minutes, and left in blocking buffer (phosphate buffered saline (PBS) with 3% bovine serum albumin (BSA)) overnight at 4 degrees Celsius. The following day, the cells were rinsed with PBS, incubated with 25 μl PBS containing primary antibody (Table 1) for 3 hours at 25° C. Subsequently, the primary antibody was removed, cells were rinsed twice with PBS, and incubated with 25 μl of PBS containing the secondary antibody (Rabbit: Alexa Fluor 790 donkey anti-rabbit IgG (H+L) Lot 2409042; Mouse: Alexa Fluor 790 donkey anti-mouse IgG (H+L) Lot 2300923) at a concentration of 1:2000. Draq5 (1:2000) was added for normalization of data. After an hour incubation in the secondary antibody, the cells were rinsed with PBS and readings at 700 and 800 nm were acquired on a Licor Odyssey fluorescence imager with a resolution of 21 μm. Analysis was subsequently performed with Empiria Studio 2.1. A total of 5 samples were collected per antibody and the sample size was reduced to 3 for the statistical analysis."}},
  "data": [
    {"smiles": "C=C(C)[C@@H]1CCC(C)=C[C@H]1c1c(O)cc(CCCCC)cc1O", "note": "[CBD, Cannabidiol, reference compound]", "values": [
      {"measurement": "Potency/efficacy compared to sorafenib", "setting": "HepG2 cells [1]", "result": "more potent"},
      {"measurement": "rtPCR Log2 fold change relative to untreated cells, BAD (Apoptosis)", "setting": "HepG2 cells [2]", "result": "−1.49", "unit": "Log2 fold change"},
      {"measurement": "rtPCR Log2 fold change relative to untreated cells, BAX (Apoptosis)", "setting": "HepG2 cells [2]", "result": "−1.103", "unit": "Log2 fold change"},
      {"measurement": "rtPCR Log2 fold change relative to untreated cells, BCL2 (Apoptosis)", "setting": "HepG2 cells [2]", "result": 4.139, "unit": "Log2 fold change"},
      {"measurement": "rtPCR Log2 fold change relative to untreated cells, BCL2L1 (Apoptosis)", "setting": "HepG2 cells [2]", "result": "−1.414", "unit": "Log2 fold change"},
      {"measurement": "rtPCR Log2 fold change relative to untreated cells, CAMK1 (Ca signaling)", "setting": "HepG2 cells [2]", "result": "−1.329", "unit": "Log2 fold change"},
      {"measurement": "rtPCR Log2 fold change relative to untreated cells, CASP3 (Apoptosis)", "setting": "HepG2 cells [2]", "result": "−1.165", "unit": "Log2 fold change"},
      {"measurement": "rtPCR Log2 fold change relative to untreated cells, CCND1 (Cell Cycle Arrest)", "setting": "HepG2 cells [2]", "result": "−1.396", "unit": "Log2 fold change"},
      {"measurement": "rtPCR Log2 fold change relative to untreated cells, CCND2 (Cell Cycle Arrest)", "setting": "HepG2 cells [2]", "result": "−1.032", "unit": "Log2 fold change"},
      {"measurement": "rtPCR Log2 fold change relative to untreated cells, CDK1 (Cell Cycle Arrest)", "setting": "HepG2 cells [2]", "result": "−1.257", "unit": "Log2 fold change"},
      {"measurement": "rtPCR Log2 fold change relative to untreated cells, CDK4 (Cell Cycle Arrest)", "setting": "HepG2 cells [2]", "result": "−1.517", "unit": "Log2 fold change"},
      {"measurement": "rtPCR Log2 fold change relative to untreated cells, CDK6 (Cell Cycle Arrest)", "setting": "HepG2 cells [2]", "result": "−1.224", "unit": "Log2 fold change"},
      {"measurement": "rtPCR Log2 fold change relative to untreated cells, CTNNB1 (Cellular Adhesion)", "setting": "HepG2 cells [2]", "result": "−1.164", "unit": "Log2 fold change"},
      {"measurement": "rtPCR Log2 fold change relative to untreated cells, GSK3B (Cellular Adhesion)", "setting": "HepG2 cells [2]", "result": "−1.409", "unit": "Log2 fold change"},
      {"measurement": "rtPCR Log2 fold change relative to untreated cells, MAP1LC3A (MAP kinase)", "setting": "HepG2 cells [2]", "result": "−1.527", "unit": "Log2 fold change"},
      {"measurement": "rtPCR Log2 fold change relative to untreated cells, MAP3K (MAP kinase)", "setting": "HepG2 cells [2]", "result": "−1.213", "unit": "Log2 fold change"},
      {"measurement": "rtPCR Log2 fold change relative to untreated cells, MAPK8 (MAP kinase)", "setting": "HepG2 cells [2]", "result": "−2.27", "unit": "Log2 fold change"},
      {"measurement": "rtPCR Log2 fold change relative to untreated cells, MITF (Drug Resistance)", "setting": "HepG2 cells [2]", "result": "−4.196", "unit": "Log2 fold change"},
      {"measurement": "rtPCR Log2 fold change relative to untreated cells, MNT (Cell Cycle Arrest)", "setting": "HepG2 cells [2]", "result": "−1.533", "unit": "Log2 fold change"},
      {"measurement": "rtPCR Log2 fold change relative to untreated cells, MTOR (PI3K/AKT/MTOR)", "setting": "HepG2 cells [2]", "result": "−1.055", "unit": "Log2 fold change"},
      {"measurement": "rtPCR Log2 fold change relative to untreated cells, PAK3 (MAP kinase)", "setting": "HepG2 cells [2]", "result": "−1.926", "unit": "Log2 fold change"},
      {"measurement": "rtPCR Log2 fold change relative to untreated cells, PIK3C2A (PI3K/AKT/MTOR)", "setting": "HepG2 cells [2]", "result": "−1.161", "unit": "Log2 fold change"},
      {"measurement": "rtPCR Log2 fold change relative to untreated cells, PPARG (Receptors)", "setting": "HepG2 cells [2]", "result": "−1.826", "unit": "Log2 fold change"},
      {"measurement": "rtPCR Log2 fold change relative to untreated cells, RAC1 (MAP kinase)", "setting": "HepG2 cells [2]", "result": "−1.274", "unit": "Log2 fold change"},
      {"measurement": "rtPCR Log2 fold change relative to untreated cells, RASA1 (MAP kinase)", "setting": "HepG2 cells [2]", "result": "−1.356", "unit": "Log2 fold change"},
      {"measurement": "rtPCR Log2 fold change relative to untreated cells, ROCK1 (Cellular Adhesion)", "setting": "HepG2 cells [2]", "result": "−1.013", "unit": "Log2 fold change"},
      {"measurement": "rtPCR Log2 fold change relative to untreated cells, SMAD2 (TGF signaling)", "setting": "HepG2 cells [2]", "result": "−1.437", "unit": "Log2 fold change"},
      {"measurement": "rtPCR Log2 fold change relative to untreated cells, TAZ (HIPPO)", "setting": "HepG2 cells [2]", "result": "−1.766", "unit": "Log2 fold change"},
      {"measurement": "rtPCR Log2 fold change relative to untreated cells, gene name not printed (Apoptosis, row r54)", "setting": "HepG2 cells [2]", "result": "−1.09", "unit": "Log2 fold change"},
      {"measurement": "rtPCR Log2 fold change relative to untreated cells, gene name not printed (Cell Cycle Arrest, row r42)", "setting": "HepG2 cells [2]", "result": "−1.332", "unit": "Log2 fold change"},
      {"measurement": "rtPCR Log2 fold change relative to untreated cells, gene name not printed (Cellular Adhesion, row r57)", "setting": "HepG2 cells [2]", "result": "−1.436", "unit": "Log2 fold change"},
      {"measurement": "rtPCR Log2 fold change relative to untreated cells, gene name not printed (PI3K/AKT/MTOR, row r20)", "setting": "HepG2 cells [2]", "result": "−1.565", "unit": "Log2 fold change"},
      {"measurement": "rtPCR Log2 fold change relative to untreated cells, gene name not printed (PI3K/AKT/MTOR, row r22)", "setting": "HepG2 cells [2]", "result": "−1.174", "unit": "Log2 fold change"},
      {"measurement": "rtPCR Log2 fold change relative to untreated cells, gene name not printed (Receptors, row r7)", "setting": "HepG2 cells [2]", "result": "−6.09", "unit": "Log2 fold change"},
      {"measurement": "Protein fold change, DVLD (Cellular Adhesion)", "setting": "HepG2 cells [3]", "result": 1.67, "unit": "Fold change"},
      {"measurement": "Protein fold change, HER2 (Receptor)", "setting": "HepG2 cells [3]", "result": 1.34, "unit": "Fold change"},
      {"measurement": "Protein fold change, MEK PO4 (MAP kinase/PI3K)", "setting": "HepG2 cells [3]", "result": 1.40, "unit": "Fold change"},
      {"measurement": "Protein fold change, MET PO4 (Receptor)", "setting": "HepG2 cells [3]", "result": 1.52, "unit": "Fold change"},
      {"measurement": "Protein fold change, PI3K (MAP kinase/PI3K)", "setting": "HepG2 cells [3]", "result": 2.05, "unit": "Fold change"},
      {"measurement": "Protein fold change, PTEN (MAP kinase/PI3K)", "setting": "HepG2 cells [3]", "result": 0.80, "unit": "Fold change"},
      {"measurement": "Protein fold change, TEAD2 (HIPPO signaling)", "setting": "HepG2 cells [3]", "result": 1.46, "unit": "Fold change"},
      {"measurement": "Protein fold change, VEGA (Angiogenesis)", "setting": "HepG2 cells [3]", "result": 1.33, "unit": "Fold change"},
      {"measurement": "Protein fold change, c-MYC (Apoptosis)", "setting": "HepG2 cells [3]", "result": 1.55, "unit": "Fold change"},
      {"measurement": "Protein fold change, p53 (Apoptosis)", "setting": "HepG2 cells [3]", "result": 1.28, "unit": "Fold change"}
    ]}
  ]
}
